This is an account of results in patent CN110194737A, “一种联水杨醛缩3-氯-2-肼基吡啶席夫碱合成方法与应用” (Harbin University of Science and Technology, priority 2019, dated 2019).

Assay [1] in a line: Qualitative/selective recognition of metal ions by the probe, Cd2+ (FIG. 6). The settings on record: 100uL of 1×10^-2mol/L Cd2+; probe solution 3mL; EX=350nm, EM=475nm.
A short description of assay [2]: Qualitative/selective recognition of metal ions by the probe, Zn2+ (FIG. 6).
The nature of assay [3]: Fluorescence titration of the Schiff base probe with Zn2+ (Examples 2-7, FIG. 4). The settings on record: for fluorescence intensity: probe 2×10^-5mol/L in methanol, 3mL, EX=350nm, EM=475nm.
Assay [4] in a line: Anti-interference of the probe for Zn2+ in the presence of other metal ions (FIG. 7). The settings on record: for fluorescence intensity: EX=350nm, EM=475nm.
Assay [5] is described as follows: Quantitative analysis of Zn2+: linear relation of fluorescence intensity and Zn2+ concentration, detection limit (Examples 8-11, FIG. 5).

For the compound `CC(C)(C)c1cc(C=NNc2ncccc2Cl)c(O)c(-c2cc(C(C)(C)C)cc(C=NNc3ncccc3Cl)c2O)c1` [荧光探针, 5,5'-二叔丁基-2,2'-二羟基联苯-3,3'-二甲醛缩3-氯-2-肼基吡啶席夫碱], the fluorescence intensity in assay [1] was found to be 300.2; in assay [2] (100uL of 1×10^-2mol/L Zn2+, probe solution 3mL, EX=350nm, EM=475nm), 923.5; in assay [3] (1μL of 1×10^-2mol/L Zn2+ added), 83.56; in assay [3] (6μL of 1×10^-2mol/L Zn2+ added), 468.2; in assay [3] (12μL of 1×10^-2mol/L Zn2+ added) it was 852.4; in assay [3] (18μL of 1×10^-2mol/L Zn2+ added), 952.4. Further, the fluorescence intensity in assay [3] (probe blank solution without Zn2+, slits 5nm) came to 28.02; in assay [4] (100uL Zn2+ plus 100uL Ba2+ (1×10^-2mol/L each)) it was 694.5; in assay [4] (100uL Zn2+ plus equal volume of Ca2+ (1×10^-2mol/L each)), 914.6; in assay [5] (Zn2+ 30μM in the system, EX=350nm, EM=475nm), 119.8; in assay [5] (Zn2+ 50μM in the system, EX=350nm, EM=475nm), 440.2; in assay [5] (Zn2+ 70μM in the system, EX=350nm, EM=475nm), 765.9. In addition, the “selectivity of recognition of Zn2+” value in assay [2] (vs 18 other metal ions, 100uL of 1×10^-2mol/L each) is “较好的选择性”. In assay [3] (365nm, after recognition of Zn2+), the “visible change under UV lamp” value is given as “在紫外灯365nm下即可看到明显变化”. Further, the “fluorescence intensity enhancement relative to blank” value in assay [3] (after recognition of Zn2+ (18μL of 1×10^-2mol/L Zn2+) vs probe blank) came out at 34 fold. For the same compound, the “interference by other metal ions in recognition of Zn2+” value in assay [4] (other metal ions coexisting with Zn2+) is recorded as “可避免其它金属离子共存时产生的干扰,可实现对Zn2+的专一性识别”. Further, the detection limit in assay [5] (Zn2+, calculated) is 6.05e-08 mol/L. The “linear range of fluorescence intensity vs Zn2+ concentration” value in assay [5] (good linear relation, EX=350nm, EM=475nm) was 30 to 70 µM.
